The values below come from patent US12178842B2, “PCSK9 antagonist compounds” (MERCK SHARP & DOHME LLC, priority 2019, dated 2024).

The structures appear in SMILES notation.

Common to all, as to assay type: binding
Experiment [1] concerns the target T1, PCSK9 (Homo sapiens, UniProt Q8NBP7).
T1 construct: biotin (biotinylated); purchased
The experiment can be described thus: PCSK9 Alexa FRET Standard TR-FRET assay. As to conditions: Ki calculated from IC50 and KD of AF cyclic peptide Reagent A; 0.5 nM PCSK9, 20 nM AF cyclic peptide; read-out: Alexa FRET Stdt TR-FRET. As for the experimental part:
A solution containing 1 nM biotinylated PCSK9+2.5 nM Lance Streptavidin Europium (Strep-Eu) is made in 50 mM HEPES pH 7.4, 0.15 M NaCl, 5 mM CaCl2, 0.01% BSA, and 0.01% Surfactant P20. A separate solution containing 40 nM of the AlexaFluor tagged cyclic peptide is made in the same buffer system. An Echo is used to transfer 0.750 ul of compound to an assay plate followed by the addition of 15 ul of PCSK9+Stept-Eu and 15 ul of AF peptide. The final assay volume is 30.750 ul containing 0.5 nM PCSK9, 1.25 nM Strep-Eu, and 20 nM AF cyclic peptide. The reaction is incubated at room temperature for at least two hours prior to fluorescence measurements using an Envision Multilabel Reader. IC50 values are determined by fitting data to a sigmoidal dose-response curve using nonlinear regression. Ki is then calculated from the Ic50 and the KD of AF cyclic peptide. Counts (B-counts) of the europium-labeled PCSK9 are followed to observe if compounds are adversely PCSK9. A fall off of the B-counts likely indicates a false positive of inhibition. Data from this procedure is reported as “A=‘numerical value’ (nanomolar)”

In experiment [2] the target is T1, PCSK9. The experiment can be described thus: PCSK9 Alexa FRET Plus TR-FRET assay. The procedure: A separate solution containing 1920 nM of the AlexaFluor tagged cyclic peptide is made in the same buffer system. […] The reaction is incubated at room temperature for at least two hours prior to fluorescence measurements using an Envision Multilabel Reader. IC50 values are determined by fitting data to a sigmoidal dose-response curve using nonlinear regression. Ki is then calculated from the Ic50 and the KD of AF cyclic peptide. Counts (B-counts) of the europium-labeled PCSK9 are followed to observe if compounds are adversely affecting PCSK9. A fall off of the B-counts is likely indicates a false positive of inhibition. Data from this procedure is reported as “P=‘numerical value’ (nanomolar)”
On the technique in general: Time-resolved FRET reads energy transfer from a long-lived donor to a nearby acceptor.

Experiment [3] concerns the target T1, PCSK9. The experiment can be described thus: PCSK9 Alexa FRET Ultra TR-FRET assay. The procedure:
A separate solution containing 1920 nM of the AlexaFluor tagged cyclic peptide is made in the same buffer system. […] The reaction is incubated at room temperature for at least two hours prior to fluorescence measurements using an Envision Multilabel Reader. IC50 values are determined by fitting data to a sigmoidal dose-response curve using nonlinear regression. Ki is then calculated from the Ic50 and the KD of AF cyclic peptide. Counts (B-counts) of the europium-labeled PCSK9 are followed to observe if compounds are adversely affecting PCSK9. A fall off of the B-counts is likely indicates a false positive of inhibition. Data from this procedure is reported as “Ki Ultra=‘numerical value’ (data reported is nanomolar)”

[4] abbreviates: Ki calculated from IC50 and KD of AF cyclic peptide Reagent B, 0.5 nM PCSK9, 960 nM AF cyclic peptide, read-out: Alexa FRET Plus TR-FRET.
Setting [5] is: Ki Ultra, calculated from IC50 and KD of AF cyclic peptide, 0.5 nM PCSK9, 960 nM AF cyclic peptide, read-out: Alexa FRET Ultra TR-FRET.

T1 sequence (Q8NBP7 153-692): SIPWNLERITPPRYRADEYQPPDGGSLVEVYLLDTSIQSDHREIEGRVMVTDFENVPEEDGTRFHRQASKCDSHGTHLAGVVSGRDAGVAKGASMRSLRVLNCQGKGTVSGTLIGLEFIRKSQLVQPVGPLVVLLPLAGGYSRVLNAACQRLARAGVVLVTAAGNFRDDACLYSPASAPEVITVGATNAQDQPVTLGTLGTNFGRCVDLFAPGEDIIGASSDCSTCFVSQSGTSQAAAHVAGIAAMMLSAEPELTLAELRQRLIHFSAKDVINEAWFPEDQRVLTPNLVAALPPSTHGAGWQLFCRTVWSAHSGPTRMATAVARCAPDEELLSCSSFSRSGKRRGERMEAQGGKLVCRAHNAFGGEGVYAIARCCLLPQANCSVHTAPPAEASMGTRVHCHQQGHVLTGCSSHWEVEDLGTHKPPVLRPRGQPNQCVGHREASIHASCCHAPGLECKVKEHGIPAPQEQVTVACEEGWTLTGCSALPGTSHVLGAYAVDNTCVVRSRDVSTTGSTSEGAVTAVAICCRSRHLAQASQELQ

As for `COc1ccc(C[C@@H]2NC(=O)[C@H]([C@@H](C)O)NC(=O)[C@@H]3[C@@H]4CCN3C(=O)[C@@H]3Cc5cn(c6ccc(F)cc56)CCCCCCN(Cc5ccc(cc5)CCNC(=O)[C@]5(C)CCCN5C2=O)C(=O)CCC(=O)N[C@@H](C)C(=O)N[C@H](CNC(=O)CCOCCOCC[N+](C)(C)CCNC(=O)CCCCCCCCCCCCCCCCC(=O)O)C(=O)N[C@@H](Cc2cccc(c2)CNC(=O)CO4)C(=O)N3)cc1` [Ex-23], the results for the Ki at PCSK9 [1], on PCSK9 [2] (setting [4]) and at PCSK9 [3] (setting [5]) were less than 1.26 nM, less than 0.006 nM and 0.007 nM, respectively.

Regarding `COc1ccc(C[C@@H]2NC(=O)[C@H]([C@@H](C)O)NC(=O)[C@@H]3[C@@H]4CCN3C(=O)[C@@H]3Cc5cn(c6ccc(F)cc56)CCCCCN(Cc5ccc(cc5)CCNC(=O)[C@]5(C)CCCN5C2=O)C(=O)CCC(=O)N[C@@H](C)C(=O)N[C@H](CNC(=O)CCOCCOCC[N+](C)(C)CCNC(=O)COCCOCCNC(=O)COCCOCCNC(=O)CC[C@H](NC(=O)CC[C@H](NC(=O)CCCCCCCCCCCCCCCCC(=O)O)C(=O)O)C(=O)O)C(=O)N[C@@H](Cc2cccc(c2)CNC(=O)CO4)C(=O)N3)cc1` [Ex-51], the Ki was less than 1.26 nM at PCSK9 [1], 0.007 nM at PCSK9 [2] and 0.005 nM at PCSK9 [3].

For the molecule `COc1ccc(C[C@@H]2NC(=O)[C@H]([C@@H](C)O)NC(=O)[C@@H]3[C@@H]4CCN3C(=O)[C@@H]3Cc5cn(c6ccc(F)cc56)CCCCCCN(Cc5ccc(cc5)CCNC(=O)[C@]5(C)CCCN5C2=O)C(=O)CCC(=O)N[C@@H](CNC(=O)COCCOCCNC(=O)CC[C@H](NC(=O)CCOCCOCC[N+](C)(C)CCNC(=O)COCCOCCNC(=O)COCCOCCNC(=O)CC[C@H](NC(=O)CCCCCCCCCCCCCCCCC(=O)O)C(=O)O)C(=O)O)C(=O)N[C@H](C)C(=O)N[C@@H](Cc2cccc(c2)CNC(=O)CO4)C(=O)N3)cc1` [Ex-61], the Ki was less than 1.26 nM on PCSK9 [1], 0.049 nM at PCSK9 [2] (setting [4]) and 0.131 nM on PCSK9 [3] (setting [5]).

Turning to `COc1ccc(C[C@@H]2NC(=O)[C@H]([C@@H](C)O)NC(=O)[C@@H]3[C@@H]4CCN3C(=O)[C@@H]3Cc5cn(c6ccc(F)cc56)CCCCCCN(Cc5ccc(cc5)CCNC(=O)[C@]5(C)CCCN5C2=O)C(=O)CCC(=O)N[C@@H](C)C(=O)N[C@H](CNC(=O)COCC[N+](C)(C)CCOCCNC(=O)COCCOCCNC(=O)COCCOCCNC(=O)CC[C@H](NC(=O)CCCCCCCCCCCCCCCCC(=O)O)C(=O)O)C(=O)N[C@@H](Cc2cccc(c2)CNC(=O)CO4)C(=O)N3)cc1` [Ex-35], the results for the Ki at PCSK9 [1], at PCSK9 [2] (setting [4]) and on PCSK9 [3] (setting [5]) were less than 1.26 nM, 0.007 nM and 0.009 nM, respectively.

On to `COc1ccc(C[C@@H]2NC(=O)[C@H]([C@@H](C)O)NC(=O)[C@@H]3[C@@H]4CCN3C(=O)[C@@H]3Cc5cn(c6ccc(F)cc56)CCCCCCN(Cc5ccc(cc5)CCNC(=O)[C@]5(C)CCCN5C2=O)C(=O)CCC(=O)N[C@@H](C)C(=O)N[C@H](CNC(=O)COCCOCCNC(=O)COCCOCCNC(=O)CCOCCOCC[N+](C)(C)CCNC(=O)COCCOCCNC(=O)COCCOCCNC(=O)CC[C@H](NC(=O)CCCCCCCCCCCCCCCCC(=O)O)C(=O)O)C(=O)N[C@@H](Cc2cccc(c2)CNC(=O)CO4)C(=O)N3)cc1` [Ex-29], for which the Ki was less than 1.26 nM at PCSK9 [1], 0.011 nM on PCSK9 [2] (setting [4]) and 0.013 nM at PCSK9 [3] (setting [5]).

Regarding `COc1ccc(C[C@@H]2NC(=O)[C@H]([C@@H](C)O)NC(=O)[C@@H]3[C@@H]4CCN3C(=O)[C@@H]3Cc5cn(c6ccc(F)cc56)CCCCCCN(Cc5ccc(cc5)CCNC(=O)[C@]5(C)CCCN5C2=O)C(=O)CCC(=O)N[C@@H](C)C(=O)N[C@H](CNC(=O)COCCOCCNC(=O)COCCOCCNC(=O)CC[C@H](NC(=O)CC[C@H](NC(=O)CCOCCOCC[N+](C)(C)CCNC(=O)CCCCCCCCCCCCCCCCC(=O)O)C(=O)O)C(=O)O)C(=O)N[C@@H](Cc2cccc(c2)CNC(=O)CO4)C(=O)N3)cc1` [Ex-9], the Ki at PCSK9 [1] was less than 1.26 nM; at PCSK9 [2] it was less than 0.006 nM; at PCSK9 [3], 0.007 nM.

On to `COc1ccc(C[C@@H]2NC(=O)[C@H]([C@@H](C)O)NC(=O)[C@@H]3[C@@H]4CCN3C(=O)[C@@H]3Cc5cn(c6ccc(F)cc56)CCCCCCN(Cc5ccc(cc5)CCNC(=O)[C@]5(C)CCCN5C2=O)C(=O)CCC(=O)N[C@@H](CNC(=O)COCCOCC[N+](C)(C)CCOCCNC(=O)COCCOCCNC(=O)COCCOCCNC(=O)CC[C@H](NC(=O)CC[C@H](NC(=O)CCCCCCCCCCCCCCC(=O)O)C(=O)O)C(=O)O)C(=O)N[C@H](CNC(=O)CCOCCOCC[N+](C)(C)C)C(=O)N[C@@H](Cc2cccc(c2)CNC(=O)CO4)C(=O)N3)cc1` [Ex-66], for which the Ki was less than 1.26 nM at PCSK9 [1], 0.007 nM on PCSK9 [2] (setting [4]) and 0.027 nM on PCSK9 [3] (setting [5]).

On to `COc1ccc(C[C@@H]2NC(=O)[C@H]([C@@H](C)O)NC(=O)[C@@H]3[C@@H]4CCN3C(=O)[C@@H]3Cc5cn(c6ccc(F)cc56)CCCCCCN(Cc5ccc(cc5)CCNC(=O)[C@]5(C)CCCN5C2=O)C(=O)CCC(=O)N[C@@H](CNC(=O)CCOCCOCC[N+](C)(C)CCNC(=O)COCCOCCNC(=O)COCCOCCNC(=O)CC[C@H](NC(=O)CCCCCCCCCCCCCCC(=O)O)C(=O)O)C(=O)N[C@H](C)C(=O)N[C@@H](Cc2cccc(c2)CNC(=O)CO4)C(=O)N3)cc1` [Ex-57], for which the Ki on PCSK9 [1] is less than 1.26 nM; at PCSK9 [2] (setting [4]), 0.009 nM; on PCSK9 [3] (setting [5]), 0.034 nM.

Turning to `COc1ccc(C[C@@H]2NC(=O)[C@H]([C@@H](C)O)NC(=O)[C@@H]3[C@@H]4CCN3C(=O)[C@@H]3Cc5cn(c6ccc(F)cc56)CCCCCCN(Cc5ccc(cc5)CCNC(=O)[C@]5(C)CCCN5C2=O)C(=O)CCC(=O)N[C@@H](C)C(=O)N[C@H](CNC(=O)COCCOCCNC(=O)CC[C@H](NC(=O)CCOCCOCC[N+](C)(C)CCNC(=O)COCCOCCNC(=O)COCCOCCNC(=O)CC[C@H](NC(=O)CCCCCCCCCCCCCCCCC(=O)O)C(=O)O)C(=O)O)C(=O)N[C@@H](Cc2cccc(c2)CNC(=O)CO4)C(=O)N3)cc1` [Ex-53], the results for the Ki on PCSK9 [1], on PCSK9 [2] and at PCSK9 [3] were less than 1.26 nM, 0.01 nM and 0.014 nM, respectively.

Turning to `COc1ccc(C[C@@H]2NC(=O)[C@H]([C@@H](C)O)NC(=O)[C@@H]3[C@@H]4CCN3C(=O)[C@@H]3Cc5cn(c6ccc(F)cc56)CCCCCCN(Cc5ccc(cc5)CCNC(=O)[C@]5(C)CCCN5C2=O)C(=O)CCC(=O)N[C@@H](C)C(=O)N[C@H](CNC(=O)CCOCCOCC[N+](C)(C)CCNC(=O)CC[C@H](NC(=O)COCCOCCNC(=O)CC[C@H](NC(=O)CCCCCCCCCCCCCCCCC(=O)O)C(=O)O)C(=O)O)C(=O)N[C@@H](Cc2cccc(c2)CNC(=O)CO4)C(=O)N3)cc1` [Ex-54], the Ki at PCSK9 [1] was less than 1.26 nM; at PCSK9 [2] (setting [4]), 0.021 nM; at PCSK9 [3] (setting [5]) it was 0.014 nM.

As to `COc1ccc(C[C@@H]2NC(=O)[C@H]([C@@H](C)O)NC(=O)[C@@H]3[C@@H]4CCN3C(=O)[C@@H]3Cc5cn(c6ccc(F)cc56)CCCCCCN(Cc5ccc(cc5)CCNC(=O)[C@]5(C)CCCN5C2=O)C(=O)CCC(=O)N[C@@H](C)C(=O)N[C@H](CNC(=O)COCCOCC[N+](C)(C)CCOCCNC(=O)COCCOCCNC(=O)COCCOCCNC(=O)CC[C@H](NC(=O)CC[C@H](NC(=O)CCCCCCCCCCCCCCCCC(=O)O)C(=O)O)C(=O)O)C(=O)N[C@@H](Cc2cccc(c2)CNC(=O)CO4)C(=O)N3)cc1` [Ex-13], the Ki is less than 1.26 nM at PCSK9 [1], less than 0.006 nM on PCSK9 [2] (setting [4]) and 0.003 nM at PCSK9 [3] (setting [5]).
